Laboratory results: the NIST ThermoML archive (doi:10.1021/je800503d)
Numbers after ± are expanded uncertainties.

Conditions: 298.15 K; 101.33 kPa; Liquid; Vibrating tube method

| SMILES | mass density [kg/m3] |
| --- | --- |
| COCCOCCOCCOCCOC [2,5,8,11,14-pentaoxapentadecane] | 1006.2 ± 0.24 |
| COCCOCCOCCOC [2,5,8,11-tetraoxadodecane] | 980.42 ± 0.23 |
| CCO [ethanol] | 785.04 ± 0.13 |
| CCCCCCCCCCCCCCCC [hexadecane] | 770.01 ± 0.24 |
